Here are results for twelve compounds from the Kinase Knowledgebase extract (Sharma et al. 2016).

Test [1] addresses MAPK14 (human) (UniProt Q16539). Conditions: Monocyte.
For test [2], the system named is MAPK14 (Balb/c mice). As to the kind of experiment: TNF-alpha Inhibition (Balb/c Mice).
In test [3] the target is MAPK14 (UniProt Q16539). As to the kind of experiment: P38-alpha Kinase Inhibition.

As a reminder, the EC50 is the midpoint of the concentration-response curve. What is called ED50 is the dose that gives a 50% effect, or the effect in half of the subjects. As a reminder, the IC50 is the concentration that gives 50% inhibition. Read a low IC50 as greater potency.

Each structure is given as a SMILES string.

Chain of MAPK14 (human) (Q16539 whole entry, looked up): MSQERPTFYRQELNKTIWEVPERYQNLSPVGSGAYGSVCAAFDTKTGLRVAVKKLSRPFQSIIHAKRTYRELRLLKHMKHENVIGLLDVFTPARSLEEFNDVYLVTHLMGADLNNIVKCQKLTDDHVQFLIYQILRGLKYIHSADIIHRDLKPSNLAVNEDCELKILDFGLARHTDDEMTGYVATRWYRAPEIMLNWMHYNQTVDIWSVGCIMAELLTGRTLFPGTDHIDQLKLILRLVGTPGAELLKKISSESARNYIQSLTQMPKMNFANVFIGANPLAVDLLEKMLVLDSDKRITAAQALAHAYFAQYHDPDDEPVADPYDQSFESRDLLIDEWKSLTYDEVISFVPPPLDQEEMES
Chain of MAPK14 (Q16539 whole entry, looked up): as above

For the compound `C[C@]1(CNC(=O)c2ccccc2)CO[C@H](c2nc(-c3ccncc3)c(-c3ccc(F)cc3)[nH]2)OC1`, in test [1], the EC50 came out at 84 nM. This lies in the double-digit nanomolar range.

The compound `C=C1COC(c2nc(-c3ccncc3)c(-c3ccc(F)cc3)[nH]2)OC1` registered an EC50 in test [1] of 117 nM. Same read-out and setting: then `C[C@]1(N)CO[C@H](c2nc(-c3ccncc3)c(-c3ccc(F)cc3)[nH]2)OC1`, with 180 nM. For the compound `C[C@]1(C(=O)N2CCOCC2)CO[C@H](c2nc(-c3ccncc3)c(-c3ccc(F)cc3)[nH]2)OC1`, the EC50 in test [1] turned out to be 110 nM. In test [2], this compound had an ED50 of 6 mg/kg. This compound also displayed an IC50 in test [3] of 50 nM. In turn, `Fc1ccc(-c2[nH]c([C@H]3OC[C@H](Cc4ccccc4)CO3)nc2-c2ccncc2)cc1` yielded an EC50 in test [1] of 191 nM.

In test [1], `OC[C@H]1CO[C@@H](c2nc(-c3ccncc3)c(-c3ccc(F)cc3)[nH]2)OC1` returned an EC50 of 200 nM. Regarding `C[C@]1(NC(=O)c2ccccc2)CO[C@H](c2nc(-c3ccncc3)c(-c3ccc(F)cc3)[nH]2)OC1`, the EC50 in test [1] came to 110 nM. The same compound registered an ED50 in test [2] of 11 mg/kg. Also, the IC50 in test [3] was found to be 44 nM. In test [1], `C[C@]1(CN)CO[C@H](c2nc(-c3ccncc3)c(-c3ccc(F)cc3)[nH]2)OC1` displayed an EC50 of 38 nM. On the same count and under the same terms, then `CC(C)C1O[C@H](c2nc(-c3ccncc3)c(-c3ccc(F)cc3)[nH]2)OCC1(C)C` (stereo partly specified), with 115 nM. In test [1], `Fc1ccc(-c2[nH]c([C@H]3OC[C@@H](Cc4ccccc4)CO3)nc2-c2ccncc2)cc1` had an EC50 of 145 nM. On the same count and under the same terms, under `C[C@]1(CN)CO[C@@H](c2nc(-c3ccncc3)c(-c3ccc(F)cc3)[nH]2)OC1` stands 33 nM; under `C[C@]1(N)CO[C@@H](c2nc(-c3ccncc3)c(-c3ccc(F)cc3)[nH]2)OC1`, 55 nM.
